Entries after “also recorded” stand apart in the source; their conditions may differ.
Experiments:
[1] = system: HFL-1 human diploid fibroblasts; assay: Lifespan (cumulative population doublings) and morphology of fibroblasts under continuous treatment; type: cell-based; parameters: key to cpd: cumulative population doublings: CPD=Σ LOG[Nfinal/Ninitial]/LOG[2]; details: for appearance of the senescent phenotype: summary of sections 1 and 2
Protocol: (§1) The steps, methods and results that were obtained regarding the anti-aging properties of the examined substances are the following: • 1) Study of the lifespan of human diploid fibroblasts in vitro in the presence of the substances. • 1.1. HFL-1 human diploid fibroblasts (HDFs) were used in in vitro conditions (growth at 37°C, 5% CO2 and 95% humidity). • 1.2. The cells were maintained in Dulbecco's modified Eagle's medium (DMEM ®; Invitrogen Life Technologies Inc.) supplemented with 10% (v/v) fetal calf serum, 100 Units/ml penicillin, 100 µg/ml strepromycin, 2 mM glutamine and 1% (v/v) non-essential amino acids (complete medium). • 1.3. The cells were constantly cultured in culture medium supplemented with the substances [final concentration for quercetin (QUER), 18α-glycyrrhetinic acid (18α GA), and hederagenin (HED): 2 µg/ml and for quercetin caprylate (QU-CAP) three concentrations were applied: 0.5, 2 and 5 µg/ml]. Quercetin, 18α-glycyrrhetinic acid and hederagenin were diluted in DMSO (dimethyl sulfoxide) whereas quercetin caprylate was diluted in caprilic/capric triglycerides (CAP). Therefore, the control cultures were incubated in medium supplemented with 0.1% DMSO or 0.1% CAP. • 1.4. The cells were replenished with fresh media supplemented with the substances or the diluents every 24 h and their numbers were examined using a Coulter Z2 ® counter (Coulter Corporation) until they reached senescence (approximately after 13 weeks). The cumulative population doublings performed by each culture were calculated using the following formula: CPD=Σ[PD] where PD=LOG[Nfinal/Ninitial]/LOG[2], where N final represents the number of cells that were measured when each culture reached confluence and N initial represents the number of cells that was initially seeded. • 1.5. Photographs of the cells maintained in cell culture and treated with the various substances for the same time period were taken. • 1.6. […] More specifically, cells that were incubated with quercetin caprylate gave up to 2.8% more population doublings as compared to the population doublings performed by the relative control cultures. Cells that were incubated with the other substances gave up to 2.9% more population doublings as compared to their relative control cultures. • 1.7. […] Cells that were treated with either of the tested substances maintained the young morphology for longer as compared to the control cultures (DMSO-treated and CAP-treated). […] HFL-1 HDFs were cultured as described in 1.1-1.4 for 10 consecutive weeks and were then subjected to β-galactosidase activity staining. • 1.2. Briefly, 10^5 cells from each culture were seeded in 6-well plates. After 24 h cells were washed with PBS (phosphate buffered saline), fixed in 0.2% glutaraldehyde and 2% formaldehyde for 5 min, washed again with PBS, and finally stained for 24 h at 37 °C in the absence of CO2, in staining solution (150 mM NaCl, 2 mM MgCl2, 5 mM K3Fe(CN)6, 40 mM citric acid, and 12 mM sodium phosphate, pH 6.0) containing 1 mg/ml 5-bromo-4-chloro-3-indolyl-β-D-galactoside. Photographs were then taken. • 1.3. […] HFL-1 HDFs that have senesced in vitro were used (growth at 37°C, 5% CO2 and 95% humidity). More specifically, middle aged HFL-1 HDFs (cpd 59) and terminally senescent HFL-1 HDFs (cpd 65) that had senesced in the absence of any substance were used. • 3.2. The cells were seeded and maintained in complete medium (see 1.2). Culture medium supplemented with the substances [final concentration for quercetin (QUER), 18α-glycyrrhetinic acid (18α GA), and hederagenin (HED): 2 µg/ml and for quercetin caprylate (QU-CAP) three concentrations were applied: 0.5, 2 and 5 µg/ml] or the diluents (0.1% DMSO or 0.1% CAP) were added 24 h later. The cells were replenished with fresh media supplemented with the substances or the diluents every 24 h for 1 week and their numbers were then examined using a Coulter Z2 ® counter (Coulter Corporation). • 3.3. […]

[2] = system: proteasome subunits (β5, α7); assay: Immunoblot of proteasome subunit levels in treated cells; type: cell-based, human; details: 24 h treatment
tyrosinase = assay: Immunoblot of tyrosinase expression in melanocytes; type: cell-based, Mouse; details: 72 h
Protocol: The steps, methods and results that were obtained regarding the whitening properties of the examined substances are the following: • A) Cellular whitening of melanocytes. • A.1. Mouse melanocytes (B10F16 cell line) were used in in vitro conditions (growth at 37°C, 5% CO2 and 95% humidity). • A.2. The cells were maintained in Dulbecco's modified Eagle's medium (DMEM®; Invitrogen Life Technologies Inc.) supplemented with 10% (v/v) fetal calf serum, 100 Units/ml penicillin, 100 µg/ml strepromycin, 2 mM glutamine and 1% (v/v) non-essential amino acids (complete medium). • A.3. 10^5 cells were seeded in petri dishes and the following day they were fed with medium supplemented with the substances [final concentration for all substances: 5 µg/ml and 10 µg/ml]. Quercetin (QUER), 18α-glycyrrhetinic acid (18α GA) and hederagenin (HED) were diluted in DMSO whereas quercetin caprylate was diluted in caprilic/capric triglycerides (CAP). Therefore, the control cultures were incubated in medium supplemented with 0.1% DMSO or 0.1% CAP. The media were replenished every 24 h and the cells were kept under these conditions constantly for 72 h. Cells were then collected and pelleted and the cell pellet was photographed. • A.4. […] The result was positively correlated to the concentration of quercetin used. • B) Detection of tyrosinase expression. • B.1. Mouse melanocytes were cultured as described in A.1.-A.3. After 72 h of treatment, the cells were collected, lysed and proteins were extracted and subjected to SDS-PAGE followed by immunoblot analysis against tyrosinase. Protein concentrations were determined using the Bradford method with BSA as a standard. • B.2.
Immunoblot analysis of tyrosinase (70-80 kDa) in melanocytes treated with the substances or the relative diluents. Equal protein loading was verified by stripping the membrane and reprobing them with GAPDH (37 kDa) antibody (bottom panel).

[3] = system: middle aged and terminally senescent HFL-1 HDFs; assay: Reversal of senescent phenotype: cell number, morphology and β-galactosidase staining after 1 week of treatment; type: cell-based, human; details: for proliferation (number of cells) / β-galactosidase activity staining: 1 week; for morphology and proliferation: summary of section 3, middle aged or terminally senescent cells
Protocol: as §1

HFL-1 HDFs [4] = assay: Cell survival with or without oxidative stress; type: cell-based, human; details: for higher survival rate as compared to control cultures: 300 µM H2O2 for 2.5 h, then additional 24 h in culture; for survival to an oxidative stress challenge: summary, versus control cells
HFL-1 HDFs [5] = assay: Levels of oxidized (carbonylated) proteins, OxyBlot analysis; type: cell-based, human; details: 24 h treatment, versus relative control cells
[6] = HFL-1 cells, 2 µg/ml, 13 consecutive weeks
[7] = Table 2, 2 µg/ml, 55 days in culture
[8] = middle aged cells (cpd 59), 2 µg/ml, quercetin caprylate 0.5, 2 and 5 µg/ml
[9] = middle aged cells, 2 µg/ml, quercetin caprylate all three concentrations
[10] = terminally senescent cells (cpd 65), 2 µg/ml, quercetin caprylate 2 and 5 µg/ml
[11] = terminally senescent cells, quercetin 2 µg/ml, quercetin caprylate higher concentrations
[12] = HFL-1 cells, 0, 5 µg/ml, 13 consecutive weeks
[13] = HFL-1 cells, 5 µg/ml, 13 consecutive weeks

Compound | cpd [1, 6] | cpd, change versus relative diluent control [1, 6] | cpd [1, 7] | protein levels of proteasome subunits (β5, α7) [2] | appearance of the senescent phenotype [1] | proliferation (number of cells) [3, 8] | β-galactosidase activity staining [3, 9] | morphology and proliferation [3] | proliferation (number of cells) [3, 10] | β-galactosidase activity staining [3, 11] | higher survival rate as compared to control cultures (HFL-1 HDFs [4]) [%] | survival to an oxidative stress challenge (HFL-1 HDFs [4]) | protein levels of tyrosinase (tyrosinase; 5 µg/ml and 10 µg/ml) | levels of oxidized proteins (HFL-1 HDFs [5]) | also measured
CC1(C)CC[C@]2(C(=O)O)CC[C@]3(C)C(=CC[C@@H]4[C@@]5(C)CC[C@H](O)[C@@](C)(CO)[C@@H]5CC[C@]43C)[C@@H]2C1 [Hederagenin] | 65.4 | +0.5% | 65.06 | did not detect any up-regulation |  |  |  |  |  |  |  |  |  |  | protein levels of tyrosinase (tyrosinase; high concentration (10 µg/ml)): reduced protein levels of tyrosinase
O=c1c(O)c(-c2ccc(O)c(O)c2)oc2cc(O)cc(O)c12 [Quercetin] | 57.24 |  | 54.39 | elevated protein levels | delay in the appearance of the senescent phenotype | higher proliferation rates | less positive to β-galactosidase activity staining | regained a younger morphology and were induced to limited but significant proliferation | limited but sigmificant cell proliferation | many of those cells were negative for β-gatactosidase activity | ≤ 14.5 | survived better | reduced protein levels of tyrosinase |  | 
CC1(C)[C@@H](O)CC[C@]2(C)[C@H]3C(=O)C=C4[C@H]5C[C@@](C)(C(=O)O)CC[C@]5(C)CC[C@@]4(C)[C@]3(C)CC[C@@H]12 [18α-glycyrrhetinic acid] | 67 | +2.9% | 65.02 | similar | delay in the appearance of the senescent phenotype | higher proliferation rates | less positive to β-galactosidase activity staining | regained a younger morphology and were induced to limited but significant proliferation |  |  | 2 | survived better |  | slightly lower levels of oxidized carbonylated proteins; also recorded: lower amounts of oxidized proteins | higher survival rate as compared to diluent-treated cells (HFL-1 HDFs [4]; 24 h treatment, no oxidative stress): 3.5%
quercetin caprylate | 66.0 | +2.8% | 64.87 | elevated protein levels | delay in the appearance of the senescent phenotype | higher proliferation rates | less positive to β-galactosidase activity staining | regained a younger morphology and were induced to limited but significant proliferation | limited but sigmificant cell proliferation | many of those cells were negative for β-gatactosidase activity | ≤ 14.5 | survived better | reduced protein levels of tyrosinase | less oxidized proteins; also recorded: lower amounts of oxidized proteins | cpd [1, 12]: 65.9; cpd, change versus relative diluent control [1, 12]: +2.6%; cpd [1, 13]: 65.4; cpd, change versus relative diluent control [1, 13]: +1.9%; cpd ([1]; Table 2, 0,5 µg/ml, 55 days in culture): 65.09; cpd ([1]; Table 2, 5 µg/ml, 55 days in culture): 63.96; more population doublings as compared to the relative control cultures ([1]; summary of Table 1, quercetin caprylate 0.5, 2 and 5 µg/ml, other substances 2 µg/ml): up to 2.8%

Source: EP2246037A2, “Anti-aging and whitening properties of quercetin, 18a-glycyrrhetinic acid, hederagenin and its derivatives” (Korres S.A. Natural Products, priority 2009, dated 2010)
